Measurements published in patent publication US8846951B2 (AbbVie Inc., priority 2009, dated 2014).
Read-outs that look alike come from different tables or passages of the source.

Experiments:
5HT2C receptors = target: T1, 5HT2C receptors (Homo sapiens, UniProt P28335); test: Human 5-HT2C functional high throughput screening assay in CHO-K1 cells (calcium flux); format: cell-based; set-up: expressed in transfected cells; host or cells: CHO-K1 cells; conditions: for EC50: CHO-K1 cells, calcium flux; for Emax: CHO-K1, 5-HT2C, maximum functional response as percentage relative to the effect of serotonin
T1 sequence (P28335 33-458): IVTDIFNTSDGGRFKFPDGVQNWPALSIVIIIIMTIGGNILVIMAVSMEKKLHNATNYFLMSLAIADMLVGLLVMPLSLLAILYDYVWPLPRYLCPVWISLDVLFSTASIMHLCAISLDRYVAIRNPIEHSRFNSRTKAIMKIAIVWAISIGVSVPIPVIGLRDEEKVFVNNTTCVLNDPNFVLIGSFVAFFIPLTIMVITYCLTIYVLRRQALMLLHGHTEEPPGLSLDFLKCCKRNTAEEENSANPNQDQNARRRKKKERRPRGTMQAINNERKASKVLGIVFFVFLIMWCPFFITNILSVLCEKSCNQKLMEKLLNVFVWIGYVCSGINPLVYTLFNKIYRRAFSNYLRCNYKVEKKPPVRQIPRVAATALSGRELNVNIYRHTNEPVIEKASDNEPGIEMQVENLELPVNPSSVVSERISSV
Summary of the method: (§1)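 Agonism was measured as FLIPR fluorescence increase (480/530 nm, 25° C) with Ca4 dye and 2.5 mM probenecid, in serum-starved CHO-K1 lines overexpressing human 5-HT2C or 5-HT2B. Six-point 1:10 dilutions from 10 μM (0.2% DMSO final) were fitted by 4-parameter logistics. Responses were normalised to serotonin to give EC50 and % Emax.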

5HT2B receptors = target: T2, 5HT2B receptors (Homo sapiens, UniProt P41595); test: Human 5-HT2B functional high throughput screening assay in CHO-K1 cells (calcium flux); format: cell-based; conditions: for EC50: CHO-K1 cells, calcium flux
T2 construct: expressed in transfected cells; host or cells: CHO-K1 cells
T2 sequence (P41595 whole entry): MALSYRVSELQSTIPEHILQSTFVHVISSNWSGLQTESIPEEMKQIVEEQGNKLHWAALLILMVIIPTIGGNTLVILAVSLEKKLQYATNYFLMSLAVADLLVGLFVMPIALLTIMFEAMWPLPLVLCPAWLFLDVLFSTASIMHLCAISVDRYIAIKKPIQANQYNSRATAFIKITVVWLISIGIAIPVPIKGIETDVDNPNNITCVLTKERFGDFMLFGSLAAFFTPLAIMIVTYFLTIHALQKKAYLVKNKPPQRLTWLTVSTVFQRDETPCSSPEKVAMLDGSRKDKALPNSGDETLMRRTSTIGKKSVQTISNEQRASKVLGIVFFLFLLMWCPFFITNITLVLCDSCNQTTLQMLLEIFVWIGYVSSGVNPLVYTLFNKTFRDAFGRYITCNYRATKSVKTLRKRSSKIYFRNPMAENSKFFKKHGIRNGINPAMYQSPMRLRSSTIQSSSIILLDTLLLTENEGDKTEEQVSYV
Summary of the method: as §1

[1] = 5-HT2C agonist activity, read-out: EC50
[2] = 5-HT2B agonist activity, read-out: EC50
[3] = 5-HT2B, maximum functional response as percentage relative to the effect of serotonin
[4] = CHO-K1, 5-HT2B, maximum functional response as percentage relative to the effect of serotonin, read-out: Emax

SMILES	EC50 (5HT2C receptors; [1]) [nM]	Emax (5HT2C receptors; read-out: Emax) [%]	EC50 (5HT2B receptors; [2]) [nM]	Emax (5HT2B receptors; [3])	Emax (5HT2B receptors; [4]) [%]	Emax (5HT2C receptors) [%]	EC50 (5HT2C receptors; EC50, 5-HT2C agonist activity) [nM]	Emax (5HT2B receptors; CHO-K1) [%]	EC50 (5HT2B receptors; EC50, 5-HT2B agonist activity) [nM]
O=S(=O)(c1cccc(F)c1)N1Cc2cccnc2[C@@H]2CNC[C@H]2C1 (relative stereo) [Example 337, Trans-6-[(3-fluorophenyl)sulfonyl]-5,6,7,7a,8,9,10,10a-octahydropyrido[3,2-c]pyrrolo[3,4-e]azepine]	–	–	–	–	–	90	90	30	1000
O=S(=O)(c1ccccc1)N1Cc2cccnc2[C@@H]2CNC[C@H]2C1 (relative stereo) [Example 338, Trans-6-(phenylsulfonyl)-5,6,7,7a,8,9,10,10a-octahydropyrido[3,2-c]pyrrolo[3,4-e]azepine]	–	–	–	–	–	80	100	20	800
O=S(=O)(c1ccc(Cl)s1)N1Cc2cccnc2[C@@H]2CNC[C@H]2C1 (relative stereo) [Example 339, Trans-6-[(5-chloro-2-thienyl)sulfonyl]-5,6,7,7a,8,9,10,10a-octahydropyrido[3,2-c]pyrrolo[3,4-e]azepine]	–	–	–	inactive	–	110	30	–	> 10000
O=S(=O)(c1ccc(Cl)cc1)N1Cc2cccnc2[C@@H]2CNC[C@H]2C1 (relative stereo) [Example 340, Trans-6-[(4-chlorophenyl)sulfonyl]-5,6,7,7a,8,9,10,10a-octahydropyrido[3,2-c]pyrrolo[3,4-e]azepine]	–	–	–	inactive	–	90	70	–	> 10000
Cc1ccccc1S(=O)(=O)N1Cc2cccnc2[C@@H]2CNC[C@H]2C1 (relative stereo) [Example 341, Trans-6-[(2-methylphenyl)sulfonyl]-5,6,7,7a,8,9,10,10a-octahydropyrido[3,2-c]pyrrolo[3,4-e]azepine]	–	–	–	–	–	90	90	65	300
O=S(=O)(c1cccc(C(F)(F)F)c1)N1Cc2cccnc2[C@@H]2CNC[C@H]2C1 (relative stereo) [Example 345, Trans-6-{[3-(trifluoromethyl)phenyl]sulfonyl}-5,6,7,7a,8,9,10,10a-octahydropyrido[3,2-c]pyrrolo[3,4-e]azepine]	400	80	200	–	90	–	–	–	–
Cc1cccc(S(=O)(=O)N2Cc3cccnc3[C@@H]3CNC[C@H]3C2)c1 (relative stereo) [Example 348, Trans-6-[(3-methylphenyl)sulfonyl]-5,6,7,7a,8,9,10,10a-octahydropyrido[3,2-c]pyrrolo[3,4-e]azepine]	–	–	–	–	–	85	70	50	800
O=S(=O)(c1ccc(OC(F)(F)F)cc1)N1Cc2cccnc2[C@@H]2CNC[C@H]2C1 (relative stereo) [Example 349, Trans-6-{[4-(trifluoromethoxy)phenyl]sulfonyl}-5,6,7,7a,8,9,10,10a-octahydropyrido[3,2-c]pyrrolo[3,4-e]azepine]	200	90	> 10000	inactive	–	–	–	–	–
Cc1ccc(S(=O)(=O)N2Cc3cccnc3[C@@H]3CNC[C@H]3C2)cc1 (relative stereo) [Example 356, Trans-6-[(4-methylphenyl)sulfonyl]-5,6,7,7a,8,9,10,10a-octahydropyrido[3,2-c]pyrrolo[3,4-e]azepine]	–	–	–	–	–	90	40	15	1000
O=S(=O)(c1ccc(F)cc1)N1Cc2cccnc2[C@@H]2CNC[C@H]2C1 (relative stereo) [Example 357, Trans-6-[(4-fluorophenyl)sulfonyl]-5,6,7,7a,8,9,10,10a-octahydropyrido[3,2-c]pyrrolo[3,4-e]azepine]	–	–	–	inactive	–	85	100	–	> 10000

Continued, in another order:

EC50 (5HT2C receptors; [1]) [nM]	Emax (5HT2C receptors; read-out: Emax) [%]	EC50 (5HT2B receptors; [2]) [nM]	Emax (5HT2B receptors; [3])	Emax (5HT2B receptors; [4]) [%]	SMILES	Emax (5HT2C receptors) [%]	EC50 (5HT2C receptors; EC50, 5-HT2C agonist activity) [nM]	Emax (5HT2B receptors; CHO-K1) [%]	EC50 (5HT2B receptors; EC50, 5-HT2B agonist activity) [nM]
70	90	> 10000	inactive	–	O=S(=O)(c1ccc(Cl)c(Cl)c1)N1Cc2cccnc2[C@@H]2CNC[C@H]2C1 (relative stereo) [Example 334, Trans-6-[(3,4-dichlorophenyl)sulfonyl]-5,6,7,7a,8,9,10,10a-octahydropyrido[3,2-c]pyrrolo[3,4-e]azepine]	–	–	–	–
20	85	900	–	25	O=S(=O)(c1ccc(OC(F)F)cc1)N1Cc2cccnc2[C@@H]2CNC[C@H]2C1 (relative stereo) [Example 335, Trans-6-{[4-(difluoromethoxy)phenyl]sulfonyl}-5,6,7,7a,8,9,10,10a-octahydropyrido[3,2-e]pyrrolo[3,4-e]azepine]	–	–	–	–
90	90	600	–	70	COc1cccc(S(=O)(=O)N2Cc3cccnc3[C@@H]3CNC[C@H]3C2)c1 (relative stereo) [Example 336, Trans-6-[(3-methoxyphenyl)sulfonyl]-5,6,7,7a,8,9,10,10a-octahydropyrido[3,2-e]pyrrolo[3,4-e]azepine]	–	–	–	–
60	90	300	–	40	Cc1c(Cl)cccc1S(=O)(=O)N1Cc2cccnc2[C@@H]2CNC[C@H]2C1 (relative stereo) [Example 342, Trans-6-[(3-chloro-2-methylphenyl)sulfonyl]-5,6,7,7a,8,9,10,10a-octahydropyrido[3,2-c]pyrrolo[3,4-e]azepine]	–	–	–	–
300	85	1000	–	60	COc1ccc(OC)c(S(=O)(=O)N2Cc3cccnc3[C@@H]3CNC[C@H]3C2)c1 (relative stereo) [Example 343, Trans-6-[(2,5-dimethoxyphenyl)sulfonyl]-5,6,7,7a,8,9,10,10a-octahydropyrido[3,2-c]pyrrolo[3,4-e]azepine]	–	–	–	–
90	85	> 10000	inactive	–	CC(C)(C)c1ccc(S(=O)(=O)N2Cc3cccnc3[C@@H]3CNC[C@H]3C2)cc1 (relative stereo) [Example 344, Trans-6-[(4-tert-butylphenyl)sulfonyl]-5,6,7,7a,8,9,10,10a-octahydropyrido[3,2-c]pyrrolo[3,4-e]azepine]	–	–	–	–
100	85	> 10000	inactive	–	COc1ccc(S(=O)(=O)N2Cc3cccnc3[C@@H]3CNC[C@H]3C2)cc1 (relative stereo) [Example 346, Trans-6-[(4-methoxyphenyl)sulfonyl]-5,6,7,7a,8,9,10,10a-octahydropyrido[3,2-c]pyrrolo[3,4-e]azepine]	–	–	–	–
90	90	> 10000	inactive	–	O=S(=O)(c1ccc(C(F)(F)F)cc1)N1Cc2cccnc2[C@@H]2CNC[C@H]2C1 (relative stereo) [Example 347, Trans-6-{[4-(trifluoromethyl)phenyl]sulfonyl}-5,6,7,7a,8,9,10,10a-octahydropyrido[3,2-c]pyrrolo[3,4-e]azepine]	–	–	–	–
1000	75	> 10000	inactive	–	CS(=O)(=O)c1cccc(-c2cccc3c2OCC[C@H]2CNC[C@H]32)c1 (relative stereo) [Example 350, Trans-7-[3-(methylsulfonyl)phenyl]-2,3,3a,4,5,10b-hexahydro-1H-[1]benzoxepino[4,5-c]pyrrole]	–	–	–	–
90	90	> 10000	inactive	–	CC(=O)c1cccc(-c2cccc3c2OCC[C@H]2CNC[C@H]32)c1 (relative stereo) [Example 351, 1-{3-[Trans-2,3,3a,4,5,10b-hexahydro-1H-[1]benzoxepino[4,5-c]pyrrol-7-yl]phenyl}ethanone]	–	–	–	–
300	80	200	–	95	COc1ccccc1S(=O)(=O)N1Cc2cccnc2[C@@H]2CNC[C@H]2C1 (relative stereo) [Example 354, Trans-6-[(2-methoxyphenyl)sulfonyl]-5,6,7,7a,8,9,10,10a-octahydropyrido[3,2-c]pyrrolo[3,4-e]azepine]	–	–	–	–
100	90	6000	–	10	N#Cc1ccccc1S(=O)(=O)N1Cc2cccnc2[C@@H]2CNC[C@H]2C1 (relative stereo) [Example 355, 2-[Trans-7,7a,8,9,10,10a-hexahydropyrido[3,2-c]pyrrolo[3,4-e]azepin-6(5H)-ylsulfonyl]benzonitrile]	–	–	–	–
